Experiments:
[1] = test system: db/db mutant mice; assay: Oral administration in the early intervention treatment of type 2 diabetes in db/db mutant mice; assay type: in vivo; conditions: day 12
Method: Five week-old female db/db mutant mice (C57BL/KsJ-db +/+ m; Jackson Labs) were housed in a fixed 12-12-hr artificial light-dark cycle, and maintained on a standard high fat diet (containing at least 11% crude fat) provided ad libitum (Teklad S-2335). Animals were allowed two days to acclimate in this experimental environment prior to the initiation of the study.
Prior to initiation of treatment, the animals were bled from the tail vein (100–200 μL of whole blood) and serum levels of glucose and triglycerides were measured in duplicate (Trinder kits; Sigma, St. Louis, Mo.). Based on these initial measures, animals (not yet hyperglycemic) were sorted into groups with approximately the same average serum glucose levels. Once sorted, the animals were housed six per cage and provided high fat rodent diet ad libitum. • Experiment I: (Compound 1) • Treatment groups (n=6/group): • 1) db/db control (sesame oil) • 2) Compound 1 (0.3 mg/kg; twice daily) • 3) Compound 1 (1 mg/kg; twice daily) • Experiment II: (Compound 32) • Treatment groups (n=6/group): • 1) db/db control (sesame oil) • 2) Compound 32 (0.3 mg/kg; once daily) • 3) Compound 32 (1 mg/kg; once daily) • 4) Compound 32 (3 mg/kg; once daily) • 3) Rosiglitazone (1 mg/kg; only daily)
Drug is prepared by mixing Compound 1 or 32 in sesame oil, and administered to animals in a volume of 5 ml/kg/dose. Drug is administered by oral gavage daily at the beginning (Compound 1 and 32) and end of the artificial dark cycle (Compound 1; 12 hour interval).
(§1) To monitor the effect of Compound 1 or 32, animals were bled following a three-hour fast at the end of the dark cycle on days 12 of the treatment period. Fasting serum glucose and triglyceride levels were measured in duplicate. The blood is kept at room temperature to allow coagulation, after which the serum is separated and assayed for glucose and triglyceride levels.

[2] = test system: ob/ob mutant mice; assay: Oral administration in the late intervention treatment of type 2 diabetes in ob/ob mutant mice; assay type: in vivo; conditions: oral gavage 5 mg/kg twice daily, p<0.05 vs control; for fasting serum glucose levels: 1 and 2 weeks of treatment; for fasting serum triglyceride levels: two weeks of treatment
Method: Five week-old male ob/ob mutant mice (C57BL/6J-ob; Jackson Labs) were housed in a fixed 12-12-hr artificial light-dark cycle, and maintained on a standard diet provided ad libitum. Animals were allowed two days to acclimate in this experimental environment prior to the initiation of the study.
Prior to initiation of treatment, the animals were bled from the tail vein (100–200 μL of whole blood) and serum levels of glucose and triglycerides were measured in duplicate (Trinder kits; Sigma, St. Louis, Mo.). Based on these initial measures, hyperglycemic animals were sorted into groups with approximately the same average serum glucose levels. Once sorted, the animals were housed six per cage and provided standard rodent diet ad libitum. • Treatment groups (n=6/group): • 1) ob/ob control (sesame oil) • 2) Compound 1 (5mg/kg twice daily)
Drug is prepared by mixing Compound 1 in sesame oil, and administered to animals in a volume of 3 ml/kg/dose. Drug is administered by oral gavage twice daily at the beginning and end of the artificial dark cycle (12 hour interval).
as §1, with “1,” for “1 or 32,”, “7 and 14” for “12”

[3] = young db/db mice, oral gavage, 0.3 or 1 mg/kg twice daily
[4] = young db/db mice, oral gavage, 0.3 or 1 mg/kg twice daily, listed as compound 1
[5] = db/db mice, oral gavage, 0.3, 1 or 3 mg/kg once daily, rosiglitazone 1 mg/kg as comparator
[6] = db/db mice, oral gavage, 0.3, 1 or 3 mg/kg once daily, rosiglitazone 1 mg/kg as comparator, listed as compound 32

Structure (SMILES)	fasting serum glucose levels [1, 3]	fasting serum triglyceride levels [1, 3]	fasting serum glucose levels [1, 4]	fasting serum triglyceride levels [1, 4]	fasting serum glucose levels ([2]; 5 mg/kg)	fasting serum glucose levels ([2]; listed as compound 1, 5 mg/kg)	fasting serum triglyceride levels ([2]; 5 mg/kg)	fasting serum triglyceride levels ([2]; listed as compound 1, 5 mg/kg)	fasting serum glucose levels [1, 5]	fasting serum triglyceride levels [1, 5]	fasting serum glucose levels [1, 6]	fasting serum triglyceride levels [1, 6]
COc1ccc(/C=C2\SC(=O)NC2=O)cc1-c1cc2c(cc1C)C(C)(C)CCC2(C)C [Compound 1, 3-(3,5,5,8,8-Pentamethyl-5,6,7,8-tetrahydro-2-naphthyl)-4-methoxybenzylidene-2,4-thiazolidinedione]	remained well within the normal range	remained well within the normal range	prevent increases	prevent increases	significant decrease	reduce	significantly reduced	reduce				
Cc1cc2c(cc1-c1cc(/C=C3\SC(=O)NC3=O)ccc1OC(F)(F)F)C(C)(C)CCC2(C)C [Compound 32, 3-(3,5,5,8,8-Pentamethyl-5,6,7,8-tetrahydro-2-naphthyl)-4-trifluoromethoxybenzylidene-2,4-thiazolidinedione]									remained well within the normal range	remained well within the normal range	equally or more potent than rosiglitazone	equally or more potent than rosiglitazone
